Ends that are not written are not given here. Peptide text beside a SMILES is read from it.
Columns and labels:
[1] = test system: CALR; assay: RT-qPCR expression of CALR gene in HEKa; conditions: 0.01 mg/mL, 24 hours, qPCR (Table 5)
Experimental: HEKa cells were incubated in the presence of 0.01 mg/mL cycled peptide B for 24 hours and HDFa cells were treated with 0.05 mg/mL of cycled peptide B for 6 h. Then, cells were lysed, and RNA was extracted (RNeasy mini kit, Qiagen). Purified RNAs were retro-transcribed (High-capacity cDNA reverse transcription kit, Applied Biosystems). RT-qPCR was performed with the panel of TaqMan assay probes (Thermo Fisher Scientific) using StepOne plus Real time PCR instrument. […] The obtained data were analyzed using the ΔΔCt method, which provides the target gene expression values as fold changes in the treated sample compared with an untreated basal sample. Both samples were normalized with the relative expression of the housekeeping gene GAPDH.
Additionally, expression of CALR after treatment with 0.01 mg/mL of cycled peptides A and B for 24 hours in HEKa cells was analyze by qPCR as described in example 3.

[2] = MTT assay, toxicity on HEKa cells; assay type: cell-based; conditions: human, normalized to non-treated cells, read-out: Cell viability
Experimental: (§1) Toxicity of cycled peptides A and B was analyzed on human dermal fibroblasts (HDFa) and adult human epidermal keratinocytes HEKa cells by MTT assay. A stock solution of the peptide was prepared in distilled water at 25 mg/mL. This stock solution was further diluted to obtain the final working concentrations (0.001, 0.005, 0.01, 0.05, 0.1 and 0.5 mg/mL) in the corresponding culture medium. Untreated cells were used as negative control samples (Basal).
(§2) Briefly, HEKa and HDFa cells were seeded in 96-well plates at a concentration of 1×10^5 cells/mL in a final volume of 200 µL of medium (20,000 cells/well). HEKa cells were incubated in Dermal Cell Basal Medium supplemented with the Keratinocytes Growth Kit; and HDFa cells were cultured in Medium 106 supplemented with 2% of LSGS. Cells were incubated at 37°C, 5% CO2 and saturated humidity.
(§3) After 24 h of incubation, cells were treated with different concentrations of each peptide (0.001, 0.005, 0.01, 0.05, 0.1 and 0.5 mg/mL) in triplicates, for MTT evaluation. After 24 h of treatment with the peptide, medium was completely removed, and 100 µL of 0.5 mg/mL MTT solution in supplemented medium were added to each well and cells were incubated at 37°C for 3 h. After incubating with MTT, the medium of each well was aspirated and 150 µL of DMSO were added in order to solubilise the formazan crystals formed. The plates were placed on a shaker for 5 minutes for complete solubilisation of the crystals and then the absorbance at 570 nm of each well was determined, using the microplate reader Multiskan FC, which is directly proportional to the number of living cells in culture.
(§4) Absorbance values were normalized using the data obtained for non-treated cells (control), obtaining the % of viability shown in Tables 1 and 2. Each condition was performed in triplicate (n=3) in 3 independent experiments (N=3).
(§5) Concentrations of peptide for which viability is above 80% are considered safe for efficacy testing. On the contrary, concentrations for which viability goes below 80% are considered potentially toxic and are not used for efficacy testing purposes. Table 1: Toxicity of cycled peptides on HDFa cells.

[3] = test system: Caspase 3 (CASP3); assay: Caspase 3 activity under BFA-induced endoplasmic reticulum stress in HEKa (Caspase-Glo 3/7); assay type: cell-based, human; conditions: BFA-induced ER stress, 24 h, vs BFA-treated cells (Figure 5)
Experimental: Caspase 3 (CASP3) is a protein member of the cysteine-aspartic acid protease family. Sequential activation of caspases plays a central role in the execution-phase of cell apoptosis. It was evaluated the effect of the cycled peptide B on the caspase 3 activity in human epidermal keratinocytes from adult (HEKa) subjected to endoplasmic reticulum (ER) stress.
HEKa cells were seeded in a black 96-well plate at a density of 18.000 cell/well in Dermal Cell Basal Medium (DCBM) and incubated at 37 °C in a humidified atmosphere with 5% CO2. After 24 h of incubation, cells were treated with 0.15 µg/mL BFA alone or in the presence of 0.005 mg/mL of the cycled peptide B and returned to the incubator for 24 h more. Untreated cells (Basal) were used as negative control samples. 24 hours after treatment, caspase 3 activity was evaluated using Caspase-Glo® 3/7 Assay System, following manufacturer instructions.
Each condition was performed at least in triplicates (n=3) in three independent experiments (N=3). For all data, mean values of relative fluorescence units (RFU) of the different experiments and SEM values are shown. All data was normalized as follows: % vs BFA = (RFU treated cells)/(RFU BFA treated cells) × 100 [formula]
Statistical data analysis was performed using Student t-test by comparison of % activity from test substance vs BFA-treated cells, *p<0.05, **p<0.01, ***p<0.001.

[4] = MTT assay, toxicity on HDFa cells; assay type: cell-based; conditions: human, normalized to non-treated cells, read-out: Cell viability
Experimental: as §1, §2, §3, §4, §5

For `CC(C)C[C@@H]1NC(=O)[C@H](C)NC(=O)[C@H](CCCNC(=N)N)NC(=O)[C@H](Cc2ccccc2)NC(=O)[C@H](Cc2c[nH]c3ccccc23)NC(=O)[C@H](Cc2c[nH]cn2)NC1=O` [Peptide A, cyclo-Trp-Phe-Arg-Ala-Leu-His] (cyclo(ALHWFR)), the “CALR expression, Effect” value [1] was “Upregulation”, the “CALR expression, Ratio” value ([1]; Basal = 1.00) was 1.34 and the viability at 24 h ([2]; 0.001 mg/mL peptide) was 103%. The viability at 24 h ([2]; 0.005 mg/mL peptide) was 108%, the viability at 24 h ([2]; 0.01 mg/mL peptide) was 109% and the viability at 24 h ([2]; 0.05 mg/mL peptide) was 93.8%. The viability at 24 h ([2]; 0.1 mg/mL peptide) was 88.3%, the viability at 24 h ([2]; 0.5 mg/mL peptide) was 75% and the “caspase 3 activity” value [3] was “significantly reduce”. For the same compound, the viability at 24 h ([4]; 0.001 mg/mL peptide) was 101%, the viability at 24 h ([4]; 0.005 mg/mL peptide) was 103% and the viability at 24 h ([4]; 0.01 mg/mL peptide) was 94.5%. For the same compound, the viability at 24 h ([4]; 0.05 mg/mL peptide) was 103%, the viability at 24 h ([4]; 0.1 mg/mL peptide) was 92.3% and the viability at 24 h ([4]; 0.5 mg/mL peptide) was 81.5%.
For “FWHALR [Linear peptide B, reference compound]”, the “CALR expression, Effect” value [1] was “No effect”.
